A word on the EC50: it is the concentration that produces a half-maximal response.

Experiment [1] addresses T1, human CB1 receptors (Homo sapiens, UniProt P21554).
T1 construct: expressed in transfected cells; host or cells: CHO cells
The experiment can be described thus: cAMP assay. In kind it is cell-based. In a few lines: (§1)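 CHO cells expressing human CB1 or CB2 were preincubated 30 min at 30 °C in Krebs Ringer bicarbonate buffer with 1 mM IBMX, then exposed to compounds for 30 min at 30 °C. cAMP was measured by time-resolved FRET against a cAMP standard curve, and EC50 values were derived.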

Experiment [2] has as its target T2, human CB2 receptors (Homo sapiens, UniProt P34972).
T2 construct: expressed in transfected cells; host or cells: CHO cells
Briefly: cAMP assay. It is filed as cell-based. A digest of the protocol: as §1

Where [3] appears, read: functional cAMP assay, CHO cells expressing human CB2, read-out: human CB2 EC50.

Where two headings read alike, the source gives them in different places.

T1 sequence (P21554 whole entry): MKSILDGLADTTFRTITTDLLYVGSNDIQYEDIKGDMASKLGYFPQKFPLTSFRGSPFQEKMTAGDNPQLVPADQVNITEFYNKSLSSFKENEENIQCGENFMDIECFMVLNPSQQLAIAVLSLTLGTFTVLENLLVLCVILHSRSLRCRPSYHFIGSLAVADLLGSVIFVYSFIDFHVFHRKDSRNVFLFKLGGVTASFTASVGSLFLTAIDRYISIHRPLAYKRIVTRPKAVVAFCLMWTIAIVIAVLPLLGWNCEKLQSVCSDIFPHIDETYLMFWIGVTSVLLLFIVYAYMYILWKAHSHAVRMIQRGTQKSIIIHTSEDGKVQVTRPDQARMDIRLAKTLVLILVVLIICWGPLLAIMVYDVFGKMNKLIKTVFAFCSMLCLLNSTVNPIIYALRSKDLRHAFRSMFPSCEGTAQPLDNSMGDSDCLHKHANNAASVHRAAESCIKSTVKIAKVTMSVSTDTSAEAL
T2 sequence (P34972 whole entry): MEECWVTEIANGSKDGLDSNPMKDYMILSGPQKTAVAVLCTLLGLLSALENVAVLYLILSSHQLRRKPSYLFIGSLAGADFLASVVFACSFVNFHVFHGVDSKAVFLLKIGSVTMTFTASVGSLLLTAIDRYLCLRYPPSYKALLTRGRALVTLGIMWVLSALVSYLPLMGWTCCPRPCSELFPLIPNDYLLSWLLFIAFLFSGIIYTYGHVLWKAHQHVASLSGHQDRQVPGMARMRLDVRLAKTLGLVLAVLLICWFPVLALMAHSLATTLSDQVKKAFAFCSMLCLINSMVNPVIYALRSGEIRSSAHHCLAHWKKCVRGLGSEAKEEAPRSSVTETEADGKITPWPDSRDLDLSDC

For `CC(C)(C)c1nc(N2CC[C@H](O)C2)c2nn(Cc3ccccc3C(F)(F)F)nc2n1` [Example 79, (S)-1-[5-tert-Butyl-2-(2-trifluoromethyl-benzyl)-2H-[1,2,3]triazolo[4,5-d]pyrimidin-7-yl]-pyrrolidin-3-ol], the 50% effective concentration (EC50) in experiment [1] was > 10000 nM; in experiment [2], 0.4 nM.
In the case of `Cn1ncnc1Cn1nc2nc(C(C)(C)C)nc(N3CC[C@H](O)C3)c2n1` [Example 89, (S)-1-[5-tert-Butyl-2-(2-methyl-2H-[1,2,4]triazol-3-ylmethyl)-2H-[1,2,3]triazolo[4,5-d]pyrimidin-7-yl]-pyrrolidin-3-ol], the figures for the EC50 in experiment [1] and in experiment [2] (setting [3]) were > 10000 nM and 372 nM, respectively.
Take `CC(C)(C)c1nc(N2CCC(F)(F)C2)c2nn(Cc3ccccc3C#N)nc2n1` [Example 25, 2-[5-tert-Butyl-7-(3,3-difluoro-pyrrolidin-1-yl)-[1,2,3]triazolo[4,5-d]pyrimidin-2-ylmethyl]-benzonitrile]: the results for the EC50 in experiment [1] and in experiment [2] were 205 nM and 0.1 nM, respectively.
For `CC(C)(C)c1nc(N2CC[C@H](O)C2)c2nn(Cc3cccnc3Nc3ccc([N+](=O)[O-])c4nonc34)nc2n1` [Example 93, (S)-1-{5-tert-Butyl-2-[2-(7-nitro-benzo[1,2,5]oxadiazol-4-ylamino)-pyridin-3-ylmethyl]-2H-[1,2,3]triazolo[4,5-d]pyrimidin-7-yl}-pyrrolidin-3-ol], the concentration for a half-maximal effect (EC50) in experiment [1] is > 10000 nM; in experiment [2] (setting [3]), 270 nM.
Consider `CC(C)(C)c1nc(N2CC3(COC3)C2)c2nn(Cc3ncccc3Cl)nc2n1` [Example 108, 5-tert-Butyl-2-(3-chloro-pyridin-2-ylmethyl)-7-(2-oxa-6-aza-spiro[3.3]hept-6-yl)-2H-[1,2,3]triazolo[4,5-d]pyrimidine], for which the concentration giving a half-maximal response (EC50) in experiment [1] was 362 nM; in experiment [2] it was 5.2 nM.
`CC(C)(C)c1nc(N2CC[C@@](C)(O)C2)c2nn(Cc3ccccc3Cl)nc2n1` [Example 124-b, (R)-1-[5-tert-Butyl-2-(2-chloro-benzyl)-2H-[1,2,3]triazolo[4,5-d]pyrimidin-7-yl]-3-methyl-pyrrolidin-3-ol]: the 50% effective concentration (EC50) in experiment [1] is > 10000 nM; in experiment [2], 6.8 nM.
For `Cc1cc(Cn2nc3nc(C(C)(C)C)nc(N4CCC(F)(F)C4)c3n2)n(C)n1` [Example 81, 5-tert-Butyl-7-(3,3-difluoro-pyrrolidin-1-yl)-2-(2,5-dimethyl-2H-pyrazol-3-ylmethyl)-2H-[1,2,3]triazolo[4,5-d]pyrimidine] the same measures were > 10000 nM and 9.4 nM.
Turning to `CC(=O)N[C@H]1CCN(c2nc(O[C@@H](C)C(F)(F)F)nc3nn(Cc4ccccc4Cl)nc23)C1` [Example 141, N—{(S)-1-[2-(2-Chloro-benzyl)-5-((S)-2,2,2-trifluoro-1-methyl-ethoxy)-2H-[1,2,3]triazolo[4,5-d]pyrimidin-7-yl]-pyrrolidin-3-yl}-acetamide], the EC50 is > 10000 nM in experiment [1] and 1150 nM in experiment [2] (setting [3]).
For `Cn1nncc1Cn1nc2nc(C(C)(C)C)nc(N3CC[C@H](O)C3)c2n1` [Example 90, (S)-1-[5-tert-Butyl-2-(3-methyl-3H-[1,2,3]triazol-4-ylmethyl)-2H-[1,2,3]triazolo[4,5-d]pyrimidin-7-yl]-pyrrolidin-3-ol], the half-maximal effective concentration (EC50) was > 10000 nM in experiment [1] and 40.7 nM in experiment [2].
In the case of `CC(C)(C)c1nc(N2CC[C@H](O)C2)c2nn(Cc3ncccc3Cl)nc2n1` [Example 75, (S)-1-[5-tert-Butyl-2-(3-chloro-pyridin-2-ylmethyl)-2H-[1,2,3]triazolo[4,5-d]pyrimidin-7-yl]-pyrrolidin-3-ol], the concentration giving a half-maximal response (EC50) in experiment [1] was > 10000 nM; in experiment [2], 4.6 nM.
For `CC(C)(C)c1nc(N2CC[C@](C)(O)C2)c2nn(Cc3ccccc3Cl)nc2n1` [Example 124-a, (S)-1-[5-tert-Butyl-2-(2-chloro-benzyl)-2H-[1,2,3]triazolo[4,5-d]pyrimidin-7-yl]-3-methyl-pyrrolidin-3-ol] the same measures were > 10000 nM and 2.5 nM.
In the case of `CC(C)(C)c1nc(N2CCC(F)(F)C2)c2nn([C@H]3CCOC3)nc2n1` [Example 46, 5-tert-Butyl-7-(3,3-difluoro-pyrrolidin-1-yl)-2-(S)-tetrahydro-furan-3-yl-2H-[1,2,3]triazolo[4,5-d]pyrimidine], the 50% effective concentration (EC50) in experiment [1] was > 10000 nM; in experiment [2], 2.8 nM.
As to `CC(C)(C)c1nc(N2CCC(F)(F)C2)c2nn(Cc3c(C(F)(F)F)ccc(Cl)c3Cl)nc2n1` [Example 60, 5-tert-Butyl-2-(2,3-dichloro-6-trifluoromethyl-benzyl)-7-(3,3-difluoro-pyrrolidin-1-yl)-2H-[1,2,3]triazolo[4,5-d]pyrimidine], the EC50 in experiment [1] was > 10000 nM; in experiment [2], 12.7 nM.
Turning to `C[C@H](Oc1nc(N2CCC(F)(F)C2)c2nn(Cc3ncccc3Cl)nc2n1)C(F)(F)F` [Example 117, 2-(3-Chloro-pyridin-2-ylmethyl)-7-(3,3-difluoro-pyrrolidin-1-yl)-5-((S)-2,2,2-trifluoro-1-methyl-ethoxy)-2H-[1,2,3]triazolo[4,5-d]pyrimidine], the 50% effective concentration (EC50) in experiment [1] is > 10000 nM; in experiment [2], 21.2 nM.
On to `CC(C)(C)c1nc(N2CC[C@H](O)C2)c2nn(Cc3nccc(Cl)c3Cl)nc2n1` [Example 85, (S)-1-[5-tert-Butyl-2-(3,4-dichloro-pyridin-2-ylmethyl)-2H-[1,2,3]triazolo[4,5-d]pyrimidin-7-yl]-pyrrolidin-3-ol], for which the values for the 50% effective concentration (EC50) in experiment [1] and in experiment [2] were > 10000 nM and 10.2 nM, respectively.
Turning to `Cn1nnnc1Cn1nc2nc(C(C)(C)C)nc(N3CC[C@H](O)C3)c2n1` [Example 88, (S)-1-[5-tert-Butyl-2-(1-methyl-1H-tetrazol-5-ylmethyl)-2H-[1,2,3]triazolo[4,5-d]pyrimidin-7-yl]-pyrrolidin-3-ol], the 50% effective concentration (EC50) is > 10000 nM in experiment [1] and 52.1 nM in experiment [2].
Taken in the same sequence, the figures for `CC(C)(C)c1nc(N2CCC(F)(F)C2)c2nn(Cc3c(F)ccc(Cl)c3Cl)nc2n1` [Example 48, 5-tert-Butyl-2-(2,3-dichloro-6-fluoro-benzyl)-7-(3,3-difluoro-pyrrolidin-1-yl)-2H-[1,2,3]triazolo[4,5-d]pyrimidine] were > 10000 nM and 5.5 nM.
Regarding `CC(C)(C)c1nc(N2CCC(F)(F)C2)c2nn(Cc3ccccc3Br)nc2n1` [Example 21, 2-(2-Bromo-benzyl)-5-tert-butyl-7-(3,3-difluoro-pyrrolidin-1-yl)-2H-[1,2,3]triazolo[4,5-d]pyrimidine], the EC50 worked out at 183 nM in experiment [1] and 0.1 nM in experiment [2].
For `CC(C)(C)c1nc(N2CCC(F)(F)C2)c2nn(Cc3nc(Cl)ccc3Cl)nc2n1` [Example 38, 5-tert-Butyl-2-(3,6-dichloro-pyridin-2-ylmethyl)-7-(3,3-difluoro-pyrrolidin-1-yl)-2H-[1,2,3]triazolo[4,5-d]pyrimidine], the EC50 was found to be 98.6 nM in experiment [1] and 1.1 nM in experiment [2].
Taken in the same sequence, the figures for `CC(C)(C)c1nc(N2CCC(F)(F)C2)c2nn(Cc3c(Cl)ccc(F)c3Cl)nc2n1` [Example 33, 5-tert-Butyl-2-(2,6-dichloro-3-fluoro-benzyl)-7-(3,3-difluoro-pyrrolidin-1-yl)-2H-[1,2,3]triazolo[4,5-d]pyrimidine] were > 10000 nM and 1.2 nM.
